For orientation: LD50 means the dose at which mortality reaches 50%.

“Also recorded” adds a separate entry of the source. Where two headings read alike, the source gives them in different places.

Consider 4 compounds from patent publication US9125877B2, “Use of kauranes compounds in the manufacture of medicament” (priority 2004, dated 2015).

The conditions of data set [1]: reported; large amount, under certain condition in vitro; cited from earlier work.
Data set [2] has as its system ventricular tachycardia and fibrillation caused by coronary ischemia. Briefly: Arrhythmia (VT, VF) during cardiac ischemia by coronary occlusion. The data set is classed as in vivo, Sprague-Dawley rats. Conditions: for VF Duration / VT Duration / VTorVF Onset / VT + VF score: occlusion of coronary for 20 min; for VT + VF score: score = (duration of VT × 1) + (duration of VF × 2). The method, then: (§1) Rats were anesthetized, the tracheotomy was performed and an intubation cannula was connected to a respirator for artificial respiration. Arterial blood pressure monitored by a pressure gauge via a femoral artery. A Miller pressure gauge was intervened into left ventricular chamber via a carotid artery to monitor ventricular pressure. The pressure gauges were connected to a Power-lab biological real-time data recording system. ECG was monitored and recorded via subcutaneous needle probes on the arms of rats. The parameters recorded including: Mean arterial blood pressure (MAP), left ventricular systolic pressure (LVSP), the first derivatives of left ventricular pressure (±dp/dtMax), left ventricular diastolic pressure (LVDP), left ventricular end diastolic pressure (LVEDP) and heart rate (HR).
(§2) The chest was open by a left-side thoracotomy between the 4th intercostals space. The pericardium was opened to expose the heart. A stainless needle and a silk suture were placed around the left coronary artery (LCD) and a loose snare ligation was formed. After complete the surgery, the animals were allowed to stabilize for 10 minus before the occlusion of LCD by tightening the snare. A success in occlusion was associated with an area of pericardial cyanosis, an elevation of T wave or ST segment in ECG. The ischemia period of occlusion was maintained from 20 or 30 minus. Cardiac reperfusion was then achieved by releasing of the snare and was confirmed by hyperemic blushing of the previous ischemic area of cyanosis and gradually recovery of the changes in ECG signals. The reperfusion period was maintained for 50 to 80 minus. ECG, MAP and other cardiodynamic data were recorded before the ischemia (control), and during the periods of ischemia and reperfusion.
Arrhythmia of ventricular tachycardia (VT) and fibrillation (VF) are the main causes of death in clinic. In the control group during ischemia, VT occurred in all of the 11 animals, VF occurred in 10 out of the 11 animals, and 3 out of the 11 animals were dead due to continuation of VF. […] The results from both control and testing groups during cardiac ischemia including the frequency of occurrence, onset time and duration of the VT and VF are shown in table 3.

The subject of data set [3] is ischemic myocardium, myocytes and mitochondria. In words: Morphology of ischemic myocardium under light and electron microscope. The data set is classed as in vivo, Sprague-Dawley rats. The method, then: At the end of experiments, the ischemic and non-ischemic normal myocardium were excised at the ischemic region respectively from both control or testing groups (compound A 1 mg/kg), and from sham-operated animals at respective region of the heart. The tissues were fixed with paraformaldehyde, embedded in wax, cut into thin or ultra-thin sections, stained and viewed under light or electron microscope.
Analogously to Example 5 except the testing group treated with compound B (2 mg/kg). Myocardiac tissues from non-ischemia, ischemia and testing group animals were excised and prepared as noted above. Myocytes and its ultra structure were examined under light and transmission electron microscope. […] The densities of crestae and matrix appear normal, and the granules normally distributed within mitochondria. […] The histological results were similar to the results from the animal treated with compound A (1 mg/kg) and indicate significant protective effects of compound B on myocardium by alleviating the ischemic damage of myocytes and mitochondria.

A further data set concerns rats. Conditions: cited from earlier work.
Data set [4] relates to ischemic heart (occlusion of left coronary artery and reperfusion). In words: Cardiodynamic parameters in the cardiac ischemia-reperfusion rat model. The data set is classed as in vivo, Sprague-Dawley rats. As for the experimental part:
as §1, §2
Control group: occlusion of coronary/ischemia-reperfusion. Testing group: occlusion of coronary/ischemia-reperfusion plus compound A or B
In part of the experiments, the time periods for occlusion and release of coronary were set for 30 min and 80 min, in order to enhance the results of ischemia-reperfusion.

Another data set in a line: Solubility in water. The data set is classed as physicochemical. The note with it: free acid, before salt formation. The method, then: The salts can be sodium, potassium or other inorganic salts. A preferred method is to use sodium. The method is the following: A solution of […] of NaOH is prepared. The liquid sodium salt of compound A or B was formed by dissolving 1 g of the compound A or B into 10 ml of the above NaOH solution and adjusting the PH to neutral. This liquid sodium salt can be further diluted with sterile water or mixed with pharmaceutical carrier at needed concentration for parenteral administration. It can be stored at room temperature.

The next data set deals with cerebral ischemia. In words: Decapitated mouse model of brain ischemia (mouth-opening). The class given is in vivo, mice. As for the experimental part: Decapitated mouse model: The mouse first decapitated and the movement of mouth opening was monitored as a sign of respiration. The frequency and duration of mouth-opening was used as an index of cerebral function after decapitation.
The animals were randomly assigned into three groups (n=8, equal number in sex): Control group, only vehicle saline were given; Testing group, compound A (4 mg/kg) dissolved in saline were given; and Positive control group, a reference compound Edaravone (8 mg/kg) dissolved in saline were given, Edaravone is an anti-oxidation drug and has protective effects on neuronal injury (Granl A. et al. 1996).
Vehicle or compounds were administrated intraperitonealy 30 minus before decapitation.

For the next data set, the system named is arterial pressure. The note with it: 25 mg/kg intraperitoneal in rats; cited from earlier work.
A further data set has as its system ischemic myocardium. Briefly: Infarct size of myocardium after ischemia-reperfusion (Evans blue). The class given is in vivo, Sprague-Dawley rats. The note with it: compound A 1 mg/kg; control 58.6±4.7%; weight of infarct tissue/(infarct + ischemia tissue).
Source text: as §2, with “The reperfusion period was maintained for 50 to 80 minus.” left out
Determination of the infarct size of myocardium: In both control and testing groups, After the end of reperfusion period, the coronary was occluded, Evans blue dye (1%, 0.5 ml) was injected to determine the ischemic and non-ischemic area of myocardium. […] After weighing the respective tissue samples, the infarction size of myocardium was calculated and express as following: Size of infarction=weight of infarct tissue/(weight of infarct tissue+weight of ischemia tissue) x %.

A short description of data set [5]: No obvious toxicity dose, administered intravenously (the invention). The class given is in vivo.
In the next data set the test system is mice. Conditions: cited from earlier work.
Data set [6] concerns ischemic heart (left anterior descending coronary artery). Briefly: Pig coronary ischemia-reperfusion by balloon-tip catheter in LAD. The class given is in vivo. The text has this: At an extremely high dose, the said effects may be abrogated. In a pig study in the invention, a balloon-tip catheter was intervened into left anterior descending coronary artery (LAD) under the guidance of X-ray angiograph. Coronary ischemia and reperfusion was reproduced by inflating or deflating the balloon. […] Kaurene compounds at this large dose may initiate an opposite or undesired effect which can diminish or override the therapeutic effects mentioned above.

For data set [7] the following is noted: intravenous injection, previously reported; cited from earlier work.
Data set [8] has as its system ischemic heart (occlusion of left coronary artery and reperfusion). Briefly: Cardiodynamic parameters in the cardiac ischemia-reperfusion rat model. The note with it: stevioside 10 to 15 mg/kg, rats. The data set is classed as in vivo, Sprague-Dawley rats.
[9] abbreviates: compound B 2 mg/kg, before ischemia.
Setting [10] is: compound B 2 mg/kg, during ischemia.
Where [11] appears, read: compound B 2 mg/kg, during reperfusion.
The mark [12] stands for this setting: 8 mg/kg intraperitoneal 30 min before decapitation.
[13] abbreviates: compound A 1 mg/kg i.v., before ischemia.
[14] abbreviates: compound A 1 mg/kg i.v., ischemia.
Setting [15] is: compound A 1 mg/kg i.v., reperfusion.
[16] abbreviates: 4 mg/kg intraperitoneal 30 min before decapitation.

With `C=C1C[C@@]23CC[C@H]4[C@@](C)(CCC[C@@]4(C)C(=O)O)[C@@H]2CC[C@]1(O)C3` (single isomer, unassigned; ent-13) [Compound B, ent-13-hydroxykaur-16-en-18-oic acid], the mutagenic effects result in data set [1] is “certain mutagenic effects; also recorded: may be mutagenic”. Moreover, in [2] (2 mg/kg), the “VF Duration” value turned out to be 1 s, the “VT Duration” value is given as 21 + 12 sec, the “VTorVF Onset” value was 660 + 178 sec and the “VT + VF score” value is recorded as 22 + 13. Further, the “animals dead during cardiac ischemia” value in data set [2] (compound B 2 mg/kg, n=5, control: 3 out of 11 dead) is reported as “none of the animals are dead”. Moreover, the “morphology of ischemic myocardium under light and transmission electron microscope” value in data set [3] (compound B 2 mg/kg, comparing with non-ischemia myocytes) was “Damages of both myocytes and mitochondria were not evident”. The “oral median lethal dose (LD50)” value with rats (rat, in vivo, po) is listed as 1500 mg/kg. Also, in data set [4] (setting [9]), the “+dp/dtMax. LVSP” value came to 8609±543 mmHg/sec and the LVSP turned out to be 112±5 mmHg. Moreover, in data set [4] (setting [10]), the “+dp/dtMax. LVSP” value worked out at 7592±433 mmHg/sec and the LVSP amounted to 104±4 mmHg. In [4] (setting [11]), the “+dp/dtMax. LVSP” value turned out to be 8362±498 mmHg/sec and the LVSP is given as 110±4 mmHg. Moreover, the solubility in water entry in “Solubility in water” is “not Readily Dissolved in Water”. In addition, in the data set on cerebral ischemia (setting [12]), the Duration of mouth-opening came to 20.1 ± 4.1 s and the Frequency of mouth-opening came out at 12.8 ± 2.7.
Regarding `C[C@@]12CC[C@@H]3[C@@](CC[C@H]4[C@@]3(C)CCC[C@@]4(C)C(=O)O)(CC1=O)C2` [Compound A, (4α,8β,13β)-13-methyl-16-oxo-17-norkauran-18-oic acid], in [2] (1 mg/kg), the “VF Duration” value came out at 1 s, the “VT Duration” value is on record as 12 + 6 sec, the “VTorVF Onset” value is reported as 730 + 166 sec and the “VT + VF score” value is listed as 14 + 7. Moreover, the “survival of cardiac ischemia” value in data set [2] (compound A 1 mg/kg, control: 3 out of 11 dead due to continuation of VF) was “all the animal survived”. Moreover, the “morphology of ischemic myocardium under light microscope” value in data set [3] (compound A 1 mg/kg, 100× microscope) was “Destruction of myocytes was not evident”. The “ultra structure of ischemic myocytes under electron microscope” value in data set [3] (compound A 1 mg/kg, ×12000, comparing with non-ischemia myocytes) was “no observable damages of the myocytes and mitochondria”. For the same compound, the LD50 in the data set with rats (intraperitoneal, rats) is on record as 617 mg/kg. Besides, the “median lethal dose (LD50)” value in the data set with rats (intravenous injection, rats) is 503 mg/kg. In the data set with rats (lethal dose), the “major symptoms of toxicity at lethal dose” value is “vasodilation and renal failure”. In the data set on rats (oral, rats), the “minimum oral lethal dose” value is 3160 mg/kg and the “oral median lethal dose (LD50)” value is recorded as 3160 mg/kg. In the data set with arterial pressure, the “effect of a large dose on vessels and arterial pressure” value is “vasodilation and lowering of arterial pressure”. Further, in the data set with ischemic myocardium, the “size of infarction after ischemia” value came to 45.8±2.9%. The “no obvious toxicity dose” value in data set [5] was “up to 40 mg/kg”. The hypotension effect entry in [4] (1 mg/kg intravenous in rats) is “no such hypotension effect”. For the same compound, in [4] (setting [13]), the “+dp/dt Max.LVSP” value turned out to be 8543 ± 486 mmHg/sec, the HR was found to be 367 ± 13 beat/min, the LVSP is on record as 111 ± 4 mmHg and the MAP was 73 ± 3 mmHg. In addition, in [4] (setting [14]), the “+dp/dt Max.LVSP” value came out at 7468 ± 558 mmHg/sec, the HR was 375 ± 10 beat/min, the LVSP amounted to 103 ± 3 mmHg and the MAP is on record as 70 ± 5 mmHg. Moreover, in data set [4] (setting [15]), the “+dp/dt Max.LVSP” value turned out to be 8431 ± 340 mmHg/sec, the HR turned out to be 394 ± 7 beat/min, the LVSP came to 114 ± 5 mmHg and the MAP is 76 ± 3 mmHg. Moreover, the “minimum oral lethal dose” value in the data set with mice is given as 5060 mg/kg. Moreover, the “sever arrhythmia induced by ischemia” value in [6] (pig pretreated at a small dose) is on record as “effectively prevented”. The cardiac contractile function entry in [6] (pig, extremely high dose (20 times more) administered via LAD) is reported as “significant decrease in cardiac contractile function”. Also, the “effects on heart before ischemia” value in data set [6] (pig, small dose) is recorded as “no observable effects on heart”. Further, in data set [7], the “median lethal dose (LD50)” value is on record as 650 mg/kg. Besides, the solubility in water result in the data set “Solubility in water” is reported as “not Readily Dissolved in Water”. In the data set with cerebral ischemia (setting [16]), the Duration of mouth-opening amounted to 22.9 ± 5 s and the Frequency of mouth-opening turned out to be 14.0 ± 3.2.
In the data set on cerebral ischemia (setting [12]), `CC1=NN(c2ccccc2)C(=O)C1` [Edaravone, reference compound] gave a Duration of mouth-opening of 17.1 ± 4.3 s and a Frequency of mouth-opening of 13.1 ± 2.4.
As for `C=C1C[C@@]23CC[C@H]4[C@@](C)(CCC[C@@]4(C)C(=O)O[C@@H]4O[C@H](CO)[C@@H](O)[C@H](O)[C@H]4O)[C@@H]2CC[C@]1(O[C@@H]1O[C@H](CO)[C@@H](O)[C@H](O)[C@H]1O[C@@H]1O[C@H](CO)[C@@H](O)[C@H](O)[C@H]1O)C3` [stevioside, reference compound], the “therapeutic effects on arrhythmia” value in data set [2] (stevioside 10 to 15 mg/kg, rats) is listed as “No significant therapeutic effects”. Besides, in data set [8], the “therapeutic effects on cardiac contractile function” value is on record as “No significant therapeutic effects”.
